According to patent US20190105367A1, “ANTIMICROBIAL 4-OXOQUINOLIZINES” (Emergent Product Development Gaithersburg Inc., priority 2011, published 2019):
Like-named read-outs stand apart in the source and are kept apart here.

What was measured:
[1] = test system: strains of A. baumannii and one strain of Acinetobacter sp.; assay: MIC with sub-inhibitory concentrations (0.25x MIC) of polymyxin B, panel of Acinetobacter strains (Example 4); assay type: cell-based
[2] = test system: A. baumannii ATCC 19606; assay: Preliminary MBC without and with sub-inhibitory polymyxin B (Example 4); assay type: cell-based, Acinetobacter baumannii; settings: Acinetobacter baumannii
[3] = test system: A. baumannii J2; assay: MIC without and with sub-inhibitory polymyxin B (Example 4); assay type: cell-based, Acinetobacter baumannii; settings: Acinetobacter baumannii, J2, A. baumannii J2; +[…] PB; 2nd experiment; read-out: MIC
[4] = test system: Acinetobacter sp. (H064200250); assay: as above; assay type: cell-based; settings: Acinetobacter
[5] = test system: A. baumannii A329; assay: Preliminary MBC without and with sub-inhibitory polymyxin B (Example 4); assay type: cell-based, Acinetobacter baumannii; settings: Acinetobacter baumannii, A329, A. baumannii A329, +0.06 μg/ml PB, 2nd experiment, read-out: MBC
[6] = test system: A. baumannii A387; assay: MIC without and with sub-inhibitory polymyxin B (Example 4); assay type: cell-based, Acinetobacter baumannii; settings: Acinetobacter baumannii, A387, read-out: MIC +0.06 μg/ml PB, A. baumannii A387; +0.06 μg/ml polymyxin B; 1st experiment
[7] = test system: A. baumannii A387; assay: Preliminary MBC without and with sub-inhibitory polymyxin B (Example 4); assay type: cell-based, Acinetobacter baumannii; settings: Acinetobacter baumannii
[8] = test system: A. baumannii A390; assay: MIC without and with sub-inhibitory polymyxin B (Example 4); assay type: cell-based, Acinetobacter baumannii; settings: Acinetobacter baumannii, A390, A. baumannii A390; +0.06 μg/ml PB; 2nd experiment; read-out: MIC
[9] = test system: A. baumannii A14; assay: Preliminary MBC without and with sub-inhibitory polymyxin B (Example 4); assay type: cell-based, Acinetobacter baumannii; settings: A. baumannii A14, +0.06 μg/ml PB, 2nd experiment
Description: (§1) The plates were incubated for 18-20 hours at 37° C. The MBC was read as the lowest concentration at which colony growth was ca. 90% less than the positive control (i.e. usually where single colonies or no colonies were observed).

[10] = test system: A. baumannii A390; assay: as above; assay type: cell-based, Acinetobacter baumannii; settings: Acinetobacter baumannii, A390, A. baumannii A390, +0.06 μg/ml PB, 2nd experiment, read-out: MBC
Description: as §1

[11] = test system: A. baumannii A473; assay: as above; assay type: cell-based, Acinetobacter baumannii; settings: Acinetobacter baumannii, A473, A. baumannii A473, +0.06 μg/ml PB, 2nd experiment, read-out: MBC
Description: as §1

[12] = test system: A. baumannii NCTC 13301; assay: as above; assay type: cell-based, Acinetobacter baumannii; settings: Acinetobacter baumannii
Description: as §1

[13] = test system: A. baumannii A401; assay: MIC without and with sub-inhibitory polymyxin B (Example 4); assay type: cell-based, Acinetobacter baumannii; settings: Acinetobacter baumannii
[14] = test system: A. baumannii A401; assay: Preliminary MBC without and with sub-inhibitory polymyxin B (Example 4); assay type: cell-based, Acinetobacter baumannii; settings: Acinetobacter baumannii
[15] = test system: A. baumannii A472; assay: MIC without and with sub-inhibitory polymyxin B (Example 4); assay type: cell-based, Acinetobacter baumannii; settings: Acinetobacter baumannii
[16] = test system: A. baumannii A472; assay: Preliminary MBC without and with sub-inhibitory polymyxin B (Example 4); assay type: cell-based, Acinetobacter baumannii; settings: Acinetobacter baumannii, preliminary MBC
[17] = test system: A. baumannii A473; assay: MIC without and with sub-inhibitory polymyxin B (Example 4); assay type: cell-based, Acinetobacter baumannii; settings: Acinetobacter baumannii, A473, A. baumannii A473; +0.06 μg/ml PB; 2nd experiment; read-out: MIC
[18] = test system: A. baumannii A489; assay: as above; assay type: cell-based, Acinetobacter baumannii; settings: Acinetobacter baumannii
[19] = test system: A. baumannii A489; assay: Preliminary MBC without and with sub-inhibitory polymyxin B (Example 4); assay type: cell-based, Acinetobacter baumannii; settings: Acinetobacter baumannii, preliminary MBC
[20] = test system: A. baumannii NCTC 13301; assay: MIC without and with sub-inhibitory polymyxin B (Example 4); assay type: cell-based, Acinetobacter baumannii; settings: Acinetobacter baumannii, NCTC13301, read-out: MIC +[…] PB
[21] = test system: A. baumannii NCTC 13301; assay: as above; assay type: cell-based, Acinetobacter baumannii; settings: Acinetobacter baumannii, NCTC13301, A. baumannii NCTC 13301; +[…] PB; 2nd experiment; read-out: MIC
[22] = test system: A. baumannii A14; assay: as above; assay type: cell-based, Acinetobacter baumannii; settings: Acinetobacter baumannii, A14, A. baumannii A14; without PB; value in parentheses; 2nd experiment; read-out: MIC read with alamar blue

C[C@@H](O)[C@H]1C(=O)N2C(C(=O)O)=C(S[C@@H]3CN[C@H](C(=O)N(C)C)C3)[C@H](C)[C@H]12 [Meropenem]
0.5 µg/mL: MIC ([18]; A489, read-out: MIC +[…] PB, A. baumannii A489, +[…] polymyxin B, 1st experiment) | MBC ([19]; A489, read-out: MBC +[…] PB, A. baumannii A489, +[…] polymyxin B, 1st experiment)
2 µg/mL: MBC ([2]; ATCC19606, A. baumannii ATCC 19606, +0.06 μg/ml PB, 2nd experiment, read-out: MBC) | MBC ([2]; ATCC19606, read-out: MBC +0.06 μg/ml PB, A. baumannii ATCC 19606, +0.06 μg/ml polymyxin B, 1st experiment) | MBC ([7]; A387, A. baumannii A387, +0.06 μg/ml PB, 2nd experiment, read-out: MBC) | MIC [8] | MBC [10] | MBC [11] | MIC [17] | MIC [22]
1 µg/mL: MIC ([4]; read-out: MIC +[…] PB, Acinetobacter spp. H064200250, +[…] polymyxin B, 1st experiment) | MIC [6] | MBC ([7]; A387, read-out: MBC +0.06 μg/ml PB, A. baumannii A387, +0.06 μg/ml polymyxin B, 1st experiment) | MBC [9] | MBC ([12]; NCTC13301, read-out: MBC +[…] PB) | MIC [20]
32 µg/mL: MBC [5]
4 µg/mL: MIC ([13]; A401, A baumannii A 401, +0.06 μg/ml PB, 2nd experiment, read-out: MIC) | MIC ([13]; A401, read-out: MIC +0.06 μg/ml PB, A baumannii A 401, +0.06 μg/ml polymyxin B, 1st experiment) | MBC ([14]; A401, A baumannii A 401, +0.06 μg/ml PB, 2nd experiment, read-out: MBC) | MBC ([14]; A401, read-out: MBC +0.06 μg/ml PB, A baumannii A 401, +0.06 μg/ml polymyxin B, 1st experiment)
≤0.125 to 32 µg/mL: MIC range with PB (0.25x MIC) Oct. 14, 2008 n = 11 ([1]; 2nd experiment, 0.06 μg/ml polymyxin B, all strains except the ATCC strain)
0.25 µg/mL: MIC ([4]; Acinetobacter spp. H064200250 (OXA51), +[…] PB, 2nd experiment, read-out: MIC) | MIC [21]
<0.125 to 4 µg/mL: MIC range with PB (0.25x MIC) Oct. 1, 2008 n = 8 ([1]; 1st experiment, […] polymyxin B, ATCC 19606, A329, A390 and A473 not taken)
≤ 0.125 µg/mL: MIC [3] | MBC ([12]; NCTC13301, A. baumannii NCTC 13301, +[…] PB, preliminary MBC, 2nd experiment, read-out: MBC) | MIC ([15]; A472, A. baumannii A472, +[…] PB, 2nd experiment, read-out: MIC) | MIC ([15]; A472, read-out: MIC +[…] PB, A. baumannii A472, +[…] polymyxin B, 1st experiment) | MBC ([16]; A472, A. baumannii A472, +[…] PB, 2nd experiment, read-out: MBC) | MBC ([16]; A472, read-out: MBC +[…] PB, A. baumannii A472, +[…] polymyxin B, 1st experiment) | MIC ([18]; A489, A. baumannii A489, +[…] PB, 2nd experiment, read-out: MIC) | MBC ([19]; A489, A. baumannii A489, +[…] PB, 2nd experiment, read-out: MBC)
